Results from ChEMBL document CHEMBL5053557, “Discovery of Novel Dual-Target Inhibitor of Bromodomain-Containing Protein 4/Casein Kinase 2 Inducing Apoptosis and Autophagy-Associated Cell Death for Triple-Negative Breast Cancer Therapy” (J Med Chem, 2021).
Activity calls are given as the source filed them. The rule behind the calls is not given here.

Key:
[1] = Cmax in Sprague-Dawley rat at 10 mg/kg, po by LC-MS analysis; type: ADME, organism-based; set-up: dose 10 mg/kg, route po; conditions: in vivo
[2] = target: T1, Bromodomain-containing protein 4 (Homo sapiens, UniProt O60885); experiment: Inhibition of BRD4 BD1 (unknown origin) incubated for 2 hrs by TR-FRET assay
MDA-MB-468 [3] = experiment: Induction of autophagy in human MDA-MB-468 cells harboring GFP-mRFP-LC3 assessed as autophagic flux at 5 uM after 24 hrs by fluorescence microscopic analysis; type: functional, cell-based
MDA-MB-468 [4] = experiment: Antitumor activity against human MDA-MB-468 cells xenografted in po dosed nude BALB/c mouse assessed as tumor growth inhibition administered once daily for 19 days and measured every 3 days; type: functional, organism-based; conditions: dose lower […], dose upper 50.0 mg/kg, time 19.0 day
[5] = Apparent volume of distribution in Sprague-Dawley rat at 1 mg/kg, iv by LC-MS analysis; type: ADME, organism-based; conditions: in vivo, read-out: Vz
MDA-MB-468 [6] = experiment: Induction of autophagy in human MDA-MB-468 cells harboring GFP-mRFP-LC3 assessed as down regulation of p62 level at 5 uM after 24 hrs by Western blot analysis; type: functional, cell-based
[7] = Cmax in Sprague-Dawley rat at 1 mg/kg, iv by LC-MS analysis; type: ADME, organism-based; set-up: dose 1 mg/kg, route iv; conditions: in vivo
MDA-MB-231 [8] = experiment: Induction of autophagy in human MDA-MB-231 cells harboring GFP-mRFP-LC3 assessed as up regulation of beclin 1 level at 2.5 to 10 uM after 24 hrs by Western blot analysis; type: functional, cell-based; conditions: dose 2.5-10 µM
Mus musculus [9] = experiment: Down regulation of phosphorylation of AKT at S129 residue expression in BALB/c SCID mouse xenogrfted with human MDA-MB-231 cells at 25 to 50 mg/kg, po administered once daily for 19 days by immunohistochemistry analysis; type: functional, organism-based; conditions: dose lower […], dose upper 50.0 mg/kg, time 19.0 day
Mus musculus [10] = experiment: Toxicity in nude BALB/c mouse xenografted with human MDA-MB-231 cells assessed as morphological changes in kidney at 25 to 50 mg/kg, po administered once daily for 19 days and measured every 3 days by H and E staining based assay; type: organism-based; conditions: in vivo, 456 h, dose 25-50 mg/kg, time 19 day
MDA-MB-468 [11] = experiment: Induction of autophagy in human MDA-MB-468 cells harboring GFP-mRFP-LC3 assessed as up regulation of beclin 1 level at 2.5 to 10 uM after 24 hrs by Western blot analysis; type: functional, cell-based; conditions: dose 2.5-10 µM
MDA-MB-468 [12] = experiment: Induction of apoptosis in human MDA-MB-468 cells at 5 uM preincubated with 3-MA for 1 hr followed by compound addition and measured after 24 hrs by Annexin V-FITC/propidium iodide staining based flow cytometric analysis; type: functional, cell-based
MDA-MB-231 [13] = experiment: Induction of apoptosis in human MDA-MB-231 cells after 24 hrs by Annexin V-FITC/propidium iodide staining based flow cytometry; type: functional, cell-based; conditions: dose 2.5-10 µM
MDA-MB-231 [14] = experiment: Induction of apoptosis in human MDA-MB-231 cells after 24 hrs by Hoechst 33258 staining fluorescence microscopic analysis; type: functional, cell-based; conditions: dose 2.5-10 µM
MDA-MB-468 [15] = experiment: Induction of apoptosis in human MDA-MB-468 cells after 24 hrs by Annexin V-FITC/propidium iodide staining based flow cytometry; type: functional, cell-based; conditions: dose 2.5-10 µM
MDA-MB-231 [16] = experiment: Induction of autophagy in human MDA-MB-231 cells at 5 uM preincubated with 3-MA for 1 hr followed by compound addition and measured after 24 hrs by fluorescence microscopic analysis; type: functional, cell-based
MDA-MB-468 [17] = experiment: Inhibition of colony formation in human MDA-MB-468 cells after 7 days by crystal violet staining based assay; type: functional, cell-based; conditions: dose 2.5-10 µM, time 7.0 day
Mus musculus [18] = experiment: Toxicity in nude BALB/c mouse xenografted with human MDA-MB-231 cells assessed as morphological changes in liver at 25 to 50 mg/kg, po administered once daily for 19 days and measured every 3 days by H and E staining based assay; type: organism-based; conditions: in vivo, 456 h, dose 25-50 mg/kg, time 19 day
MDA-MB-468 [19] = experiment: Induction of apoptosis in human MDA-MB-468 cells after 24 hrs by Hoechst 33258 staining fluorescence microscopic analysis; type: functional, cell-based; conditions: dose 2.5-10 µM
[20] = Half life in Sprague-Dawley rat at 1 mg/kg, iv by LC-MS analysis; type: ADME, organism-based; conditions: in vivo
Mus musculus [21] = experiment: Toxicity in nude BALB/c mouse xenografted with human MDA-MB-468 cells assessed as change in body weight at 25 to 50 mg/kg, po administered once daily for 19 days and measured every 3 days; type: organism-based; conditions: in vivo, 456 h, dose 25-50 mg/kg, time 19 day
[22] = target: Bromodomain testis-specific protein (Homo sapiens, UniProt Q58F21); experiment: Inhibition of BRDT BD1 (unknown origin) incubated for 2 hrs by TR-FRET assay
[23] = AUC(0 to infinity) in Sprague-Dawley rat at 10 mg/kg, po by LC-MS analysis; type: ADME, organism-based; set-up: time infinity, dose 10 mg/kg, route po; conditions: in vivo
Mus musculus [24] = experiment: Toxicity in nude BALB/c mouse xenografted with human MDA-MB-231 cells assessed as mortality at 25 to 50 mg/kg, po administered once daily for 19 days and measured every 3 days; type: organism-based; conditions: in vivo, 456 h, dose 25-50 mg/kg, time 19 day
MDA-MB-231 [25] = experiment: Induction of autophagy in human MDA-MB-231 cells xenografted in nude BALB/c mouse assessed as increase in LC3II expression at 25 to 50 mg/kg, po administered once daily for 19 days by immunohistochemistry analysis; type: functional, organism-based; conditions: dose lower […], dose upper 50.0 mg/kg, time 19.0 day
[26] = target: Bromodomain-containing protein 3 (Homo sapiens, UniProt Q15059); experiment: Inhibition of BRD3 BD1 (unknown origin) incubated for 2 hrs by TR-FRET assay
[27] = target: T1, Bromodomain-containing protein 4; experiment: Inhibition of BRD4 BD2 (unknown origin) incubated for 2 hrs by TR-FRET assay
[28] = target: T1, Bromodomain-containing protein 4; experiment: Inhibition of BRD4 BD1/BD2 (unknown origin) incubated for 2 hrs by TR-FRET assay
Mus musculus [29] = experiment: Toxicity in nude BALB/c mouse xenografted with human MDA-MB-231 cells assessed as morphological changes in spleen at 25 to 50 mg/kg, po administered once daily for 19 days and measured every 3 days by H and E staining based assay; type: organism-based; conditions: in vivo, 456 h, dose 25-50 mg/kg, time 19 day
Mus musculus [30] = experiment: Toxicity in nude BALB/c mouse xenografted with human MDA-MB-231 cells assessed as morphological changes in lung at 25 to 50 mg/kg, po administered once daily for 19 days and measured every 3 days by H and E staining based assay; type: organism-based; conditions: in vivo, 456 h, dose 25-50 mg/kg, time 19 day
Mus musculus [31] = experiment: Down regulation of c-Myc expression in BALB/c SCID mouse xenogrfted with human MDA-MB-231 cells at 25 to 50 mg/kg, po administered once daily for 19 days by Western blot analysis; type: functional, organism-based; conditions: dose lower […], dose upper 50.0 mg/kg, time 19.0 day
Mus musculus [32] = experiment: Toxicity in nude BALB/c mouse xenografted with human MDA-MB-231 cells assessed as change in body weight at 25 to 50 mg/kg, po administered once daily for 19 days and measured every 3 days; type: organism-based; conditions: in vivo, 456 h, dose 25-50 mg/kg, time 19 day
MDA-MB-231 [33] = experiment: Induction of autophagy in human MDA-MB-231 cells harboring GFP-mRFP-LC3 assessed as down regulation of p62 level at 5 uM after 24 hrs by Western blot analysis; type: functional, cell-based
[34] = Half life in Sprague-Dawley rat at 10 mg/kg, po by LC-MS analysis; type: ADME, organism-based; conditions: in vivo
MDA-MB-468 [35] = experiment: Induction of autophagy in human MDA-MB-468 cells at 5 uM preincubated with 3-MA for 1 hr followed by compound addition and measured after 24 hrs by fluorescence microscopic analysis; type: functional, cell-based
MDA-MB-468 [36] = experiment: Inhibition of colony formation in human MDA-MB-468 cells at 5 uM after 7 days in presence of 3-MA by crystal violet staining based assay; type: functional, cell-based; conditions: time 7.0 day

Sequence of Bromodomain-containing protein 3 (Q15059 whole entry): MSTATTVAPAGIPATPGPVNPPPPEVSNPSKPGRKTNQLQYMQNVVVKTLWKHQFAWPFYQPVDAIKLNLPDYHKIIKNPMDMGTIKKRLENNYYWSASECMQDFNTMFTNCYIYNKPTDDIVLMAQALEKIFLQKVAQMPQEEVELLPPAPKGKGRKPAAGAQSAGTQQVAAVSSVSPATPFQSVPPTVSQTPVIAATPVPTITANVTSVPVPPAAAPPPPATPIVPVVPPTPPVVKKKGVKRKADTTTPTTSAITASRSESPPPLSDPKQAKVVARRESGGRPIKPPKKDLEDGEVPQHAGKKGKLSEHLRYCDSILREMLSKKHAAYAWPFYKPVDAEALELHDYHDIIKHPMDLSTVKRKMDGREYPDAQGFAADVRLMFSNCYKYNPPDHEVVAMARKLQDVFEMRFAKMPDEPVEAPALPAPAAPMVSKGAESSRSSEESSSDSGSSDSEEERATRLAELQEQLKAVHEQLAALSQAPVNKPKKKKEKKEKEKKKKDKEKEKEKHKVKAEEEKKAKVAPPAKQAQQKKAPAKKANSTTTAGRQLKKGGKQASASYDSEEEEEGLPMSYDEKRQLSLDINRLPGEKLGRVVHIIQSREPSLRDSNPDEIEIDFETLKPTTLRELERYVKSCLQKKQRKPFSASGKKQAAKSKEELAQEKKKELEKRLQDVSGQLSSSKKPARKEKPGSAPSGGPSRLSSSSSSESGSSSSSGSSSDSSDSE

Which results are given for `COc1cc(OC)c2c(=O)[nH]c(-c3ccc(OCC(=O)Nc4ccc(N5CCN(C)CC5)c(Cl)c4)cc3)nc2c1`?
Cmax [1]: 206 ng/mL; IC50 [2]: 193 nM; Activity (MDA-MB-468 [3]): Active; Activity (MDA-MB-468 [4]): Active; Vd [5]: 21.1 L/kg; Activity (MDA-MB-468 [6]): Active; Cmax [7]: 237 ng/mL; Activity (MDA-MB-231 [8]): Active; Activity (Mus musculus [9]): Active; Activity (Mus musculus [10]): Non-Toxic; Activity (MDA-MB-468 [11]): Active; Activity (MDA-MB-468 [12]): inactive; Activity (MDA-MB-231 [13]): Dose-dependent effect; Activity (MDA-MB-231 [14]): Dose-dependent effect; Activity (MDA-MB-468 [15]): Dose-dependent effect; Activity (MDA-MB-231 [16]): inactive; inhibition (MDA-MB-468 [17]): Dose-dependent effect; Activity (Mus musculus [18]): Non-Toxic; Activity (MDA-MB-468 [19]): Dose-dependent effect; half-life [20]: 253 min; Activity (Mus musculus [21]): Non-Toxic; IC50 [22]: > 10 µM; AUC(0-inf) [23]: 2090 ng·h/mL; Activity (Mus musculus [24]): Non-Toxic; Activity (MDA-MB-231 [25]): Active; IC50 [26]: 9.2 µM; IC50 [27]: 98 nM; IC50 [28]: 180 nM; Activity (Mus musculus [29]): Non-Toxic; Activity (Mus musculus [30]): Non-Toxic; Activity (Mus musculus [31]): Active; Activity (Mus musculus [32]): Non-Toxic; Activity (MDA-MB-231 [33]): Active; half-life [34]: 310 min; Activity (MDA-MB-468 [35]): inactive; inhibition (MDA-MB-468 [36]): inactive
